Test [1] has as its target Sonic hedgehog protein (Mus musculus) (UniProt Q62226). Briefly: Activation of Shh in mouse Shh Light2 cells assessed as […] at 10 uM after 30 hrs by luciferase reporter gene assay in presence of 1000 to 10000 nM 3-keto-N-aminoethyl-N'-aminocaproyldihydrocinnamoyl cyclopamine. Format: functional, cell-based. The conditions noted are these: Shh Light II. A general note: In a reporter assay the amount or activity of a reporter protein is the signal.

The target is the same in test [2]. Description: Activation of Shh in mouse Shh Light2 cells assessed as […] at 1 uM after 30 hrs by luciferase reporter gene assay in presence of 1000 to 10000 nM 3-keto-N-aminoethyl-N'-aminocaproyldihydrocinnamoyl cyclopamine. It counts as functional, cell-based. The conditions noted are these: Shh Light II.
The target is the same in test [3]. Briefly: Activation of Shh in ptch1 gene-deficient MEF assessed as beta-galactosidase activity after 30 hrs by chemiluminescence assay in presence of 100 nM 3-keto-N-aminoethyl-N'-aminocaproyldihydrocinnamoyl cyclopamine.
The target is the same in test [4]. Briefly: Activation of Shh in smo gene-deficient MEF at 0.5 uM after 30 hrs by luciferase reporter assay.
The target of test [5] is T1, Protein smoothened (Homo sapiens, UniProt Q99835). Briefly: Inhibition of BODIPY-cyclopamine binding to Smo expressed in HEK293T cells after 1 hr by fluorescence microscopy.
T1 sequence (Q99835 whole entry): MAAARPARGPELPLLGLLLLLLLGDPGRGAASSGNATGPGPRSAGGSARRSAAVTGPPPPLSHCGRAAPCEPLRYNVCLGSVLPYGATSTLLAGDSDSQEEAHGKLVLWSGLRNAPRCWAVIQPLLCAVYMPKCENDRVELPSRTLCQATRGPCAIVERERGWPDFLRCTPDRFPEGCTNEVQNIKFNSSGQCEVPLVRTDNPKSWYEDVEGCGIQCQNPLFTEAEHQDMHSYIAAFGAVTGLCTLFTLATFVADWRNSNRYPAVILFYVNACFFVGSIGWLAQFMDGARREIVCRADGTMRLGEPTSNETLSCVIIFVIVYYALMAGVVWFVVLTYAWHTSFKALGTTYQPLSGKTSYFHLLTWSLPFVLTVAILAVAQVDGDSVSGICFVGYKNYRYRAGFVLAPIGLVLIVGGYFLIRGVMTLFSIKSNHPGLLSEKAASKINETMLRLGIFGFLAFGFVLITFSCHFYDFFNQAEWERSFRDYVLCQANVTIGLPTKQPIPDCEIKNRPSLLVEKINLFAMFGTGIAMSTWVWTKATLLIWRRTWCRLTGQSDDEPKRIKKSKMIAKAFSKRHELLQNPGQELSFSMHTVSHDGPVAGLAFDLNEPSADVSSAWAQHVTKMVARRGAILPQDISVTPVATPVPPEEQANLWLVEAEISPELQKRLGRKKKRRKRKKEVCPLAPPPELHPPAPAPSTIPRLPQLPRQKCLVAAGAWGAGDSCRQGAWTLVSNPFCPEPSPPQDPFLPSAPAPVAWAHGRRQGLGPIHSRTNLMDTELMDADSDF
Test [6] deals with T1, Protein smoothened. As to conditions: HEK-293T; 5 uM.
Description: Inhibition of BODIPY-cyclopamine binding to Smo C-terminal cytoplasmic domain expressed in HEK293T cells at 5 uM after 4 hrs by fluorescence microscopy
Test [7] deals with T1, Protein smoothened. The conditions noted are these: HEK-293T; 5 uM. The source holds these as a separate data set.
Description: Inhibition of BODIPY-cyclopamine binding to Smo N-terminal cysteine domain expressed in HEK293T cells at 5 uM after 4 hrs by fluorescence microscopy
The target of test [8] is Sonic hedgehog protein (Mus musculus) (UniProt Q62226). Description: Activation of Shh in mouse Shh Light2 cells assessed as […] after 30 hrs by luciferase reporter gene assay in presence of 100 nM 3-keto-N-aminoethyl-N'-aminocaproyldihydrocinnamoyl cyclopamine. It counts as functional, cell-based. The conditions noted are these: Shh Light II.
The target is the same in test [9]. Briefly: Activation of Shh in smo-expressing MEF at 0.5 uM after 30 hrs by luciferase reporter assay.

The structures appear in SMILES notation. Activity calls are given as the source filed them. No cut-off for these calls is given here.

In general, IC50 refers to the midpoint of a concentration-inhibition curve. A lower IC50 goes with greater potency in that assay.

With `CC1=C2C[C@H]3[C@@H](CC=C4CC(=O)CC[C@@]43C)[C@@H]2CC[C@]12O[C@@H]1C[C@H](C)CN(CCNC(=O)CCCCCNC(=O)CCc3ccccc3)[C@H]1[C@H]2C`, the result in test [1] and in test [2] was Active.
Consider `CC1=C2C[C@H]3[C@@H](CC=C4C[C@@H](O)CC[C@@]43C)[C@@H]2CC[C@]12O[C@@H]1C[C@H](C)CN[C@H]1[C@H]2C`, for which the outcome in [3] was Active.
As for `CN[C@H]1CC[C@H](N(Cc2cccc(-c3ccncc3)c2)C(=O)c2sc3ccccc3c2Cl)CC1`, the outcome in [3] was Active.
For the compound `c1ccc2c(Oc3nc(Nc4ccc(N5CCOCC5)cc4)c4ncn(C5CCCCC5)c4n3)cccc2c1` [PURMORPHAMINE], the outcome in test [4] was inactive. The compound also returned an IC50 at Protein smoothened [5] of 1500 nM. For the same compound, the inhibition result at Protein smoothened [6] and on Protein smoothened [7] was “Active” throughout. Further, the outcome in [8], in [9] and in [3] was Active.

(Values after ChEMBL document CHEMBL1221175, “Purmorphamine activates the Hedgehog pathway by targeting Smoothened” (Nat Chem Biol, 2006).)
